Data: patent publication US12342819B2, “Elasnin, a bacteriostatic agent that has potent antibiofilm activities against both mono- and multi-species biofilm” (The Hong Kong University of Science and Technology, priority 2019, dated 2025)
In brackets after ≈: the same amount, converted by molar mass. Several values for one entry are separate records, joined by “and”; a condition that tells them apart may be missing. Equal entries are not always repeated.

How the values were obtained:
MRSA ATCC 43300 [1] = assay: Minimum bactericidal concentration (MBC); assay type: cell-based, Methicillin-resistant Staphylococcus aureus
Description: (§1) Minimum inhibitory concentrations (MICs) and minimum bactericidal concentrations (MBCs) were determined with MRSA ATCC 43300 and E. coli ATCC 25922, according to the Clinical and Laboratory Standards Institute guideline CLSI M100 (2018). Approximately 10^5 CFU/ml overnight culture of the bacteria strains were inoculated into MHB and treated with series concentrations of Elasnin (or crude extracts and antibiotics). […] MBCs were measured following the MIC assay by plating 1 ml suitable diluted culture broth from each well on Mueller Hinton Agar (MHA) plate. The MBCs were defined as lowest concentration at which antimicrobial agent caused >99.9% reduction of cells. Each assay was done in duplicates and repeated 3 times.

MRSA ATCC 43300 [2] = assay: MBIC assay (biofilm inhibition, MTT); assay type: cell-based, Methicillin-resistant Staphylococcus aureus; conditions: minimum concentration inhibiting 90% biofilm formation
Description: (§2) Minimum biofilm inhibitory concentrations (MBICs) and minimum biofilm eradication concentrations (MBECs) were determined as previously described (30, 31).
(§3) An overnight culture of the testing strains was diluted into approximately 10^7 with LB and 0.5% glucose and treated with various concentrations of Elasnin in 96-well cell culture plates. Culture broth was then incubated at 37° C. for 24 hours and rinsed twice by 1×PBS to remove non-adhering and planktonic cells. After the wash, MTT staining assay was conducted to measure viable cells in the biofilm since the MTT can react with activated succinate dehydrogenase in viable cell mitochondria to form blue violet formazan, which can be read at 570 nm after being dissolved in DMSO.

MRSA ATCC 43300 [3] = assay: MBEC assay (eradication of pre-formed biofilm, MTT); assay type: cell-based, Methicillin-resistant Staphylococcus aureus; conditions: concentration eradicating 50% of mature biofilm within 24 hours
Description: as §2
(§4) The ability of Elasnin to eradicate pre-formed mature biofilm was tested through a MBEC assay. Similar to MBIC assay, an overnight culture of testing strains was incubated for 24 hours in 96-well cell culture plates but without adding Elasnin to form biofilm. Formed biofilm was then rinsed twice by 1×PBS and challenged with a series concentration of Elasnin (diluted with LB and 0.5% glucose) and incubated for another 24 hours at 37° C. After incubation, each well was rinsed twice by 1×PBS and MTT assay was conducted to measure viable cells in remaining biofilm.

MRSA ATCC 43300 [4] = assay: Concentration response curve study (CFU counting of planktonic cells); assay type: cell-based, Methicillin-resistant Staphylococcus aureus; conditions: 24 hours; vancomycin 0 to 50 μg/ml, elasnin 0 to 100 μg/ml
Description: MRSA ATCC 43300 was used for concentration response curve study. 4×10^5 CFU/ml of exponentially growing MRSA was inoculated into MHB with various concentrations of elasnin and vancomycin in 15 ml falcon tubes. The tubes were incubated at 37° C. on a rotary shaker for 24 hours; 1 ml of culture broth in each tube was diluted with MHB and 1 ml diluted bacteria was plated on MHA plates for the CFU counting. Each concentration was plated on two plates and the experiments were repeated 3-times.

MRSA biofilms = assay: CLSM observation with biofilm cell and matrix staining; assay type: cell-based, Methicillin-resistant Staphylococcus aureus; conditions: elasnin 4 μg/mL
Description: Biofilms were grown on glass cover slides as described for the MBIC and MBEC assays. Treated biofilms were then rinsed twice with 1×PBS and stained with FilmTracer™ FM® 1-43 green biofilm cell stain and FilmTracer™ SYPRO® Ruby Biofilm Matrix Stain at room temperature for 30 min in the dark. Leica Sp8 Confocal Microscope was employed to observe cells and matrix in the biofilm at 488 nm.

Bacillus subtilis 168 [5] = assay: MBIC assay; assay type: cell-based
Description: as §2, §3

E. coli ATCC 25922 [6] = assay: MBIC assay; assay type: cell-based; conditions: even at 100 μg/ml
Description: as §2, §3

P. aeruginosa PAO1 [7] = assay: MBIC assay; assay type: cell-based; conditions: even at 100 μg/ml
Description: as §2, §3

S. aureus ATCC 25923 [8] = assay: MBIC assay; assay type: cell-based; conditions: S. aureus ATCC 25923, 90% reduction of biofilm formation
Description: as §2, §3

S. aureus B04 [9] = assay: MBIC assay; assay type: cell-based; conditions: S. aureus B04, 90% reduction of biofilm formation
Description: as §2, §3

Bacillus subtilis 168 [10] = assay: MBEC assay; assay type: cell-based; conditions: 50% eradication of mature biofilm
Description: as §2, §4

E. coli ATCC 25922 [11] = assay: MBEC assay; assay type: cell-based; conditions: viability of biofilm cells constant as concentration increased
Description: as §2, §4

P. aeruginosa PAO1 [12] = assay: MBEC assay; assay type: cell-based; conditions: viability of biofilm cells constant as concentration increased
Description: as §2, §4

S. aureus ATCC 25923 [13] = assay: MBEC assay; assay type: cell-based; conditions: S. aureus ATCC 25923, 50% eradication of mature biofilm
Description: as §2, §4

S. aureus B04 [14] = assay: MBEC assay; assay type: cell-based; conditions: S. aureus B04, 50% eradication of mature biofilm
Description: as §2, §4

[15] = target: T1, human granulocyte elastase (Homo sapiens, UniProt P08246); conditions: cited from earlier work
T1 sequence (P08246 30-267): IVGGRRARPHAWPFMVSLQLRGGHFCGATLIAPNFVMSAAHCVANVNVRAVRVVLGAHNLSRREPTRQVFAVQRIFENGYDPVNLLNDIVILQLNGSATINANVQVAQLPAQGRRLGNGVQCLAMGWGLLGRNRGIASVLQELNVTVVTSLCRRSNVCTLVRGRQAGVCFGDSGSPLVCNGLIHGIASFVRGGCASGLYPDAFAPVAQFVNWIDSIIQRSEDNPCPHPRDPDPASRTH

pancreatic elastase = conditions: cited from earlier work
chymotrypsin = conditions: cited from earlier work
trypsin = conditions: cited from earlier work
MRSA ATCC 43300 [16] = assay: Minimum inhibitory concentration (MIC), CLSI M100; assay type: cell-based, Methicillin-resistant Staphylococcus aureus; conditions: Staphylococcus aureus, 24 h
Description: as §1

[17] = biofilm eradication assay, pre-formed biofilm, 18 hr
[18] = biofilm inhibition assay, 24 hr, vs untreated

## CCCCCC(=O)C(CCCC)c1oc(=O)c(CCCC)c(O)c1CCCC (stereo not drawn) [elasnin]
MRSA ATCC 43300 [1]; >99.9% reduction of cells
  MBC: above 100 μg/ml
MRSA ATCC 43300 [2]
  MBIC: 1.25 to 2.5 µg/mL
MRSA ATCC 43300 [3]
  MBEC: 1.25 µg/mL and 1.25 to 2.5 µg/mL
MRSA ATCC 43300 [4]
  cell density versus concentration (concentration-response curve): cell densities did not significantly differ
MRSA biofilms; [17]
  reduction in cells: over 50%
  reduction in matrices: > 70%
MRSA biofilms; [18]
  decrease in density of cells: around 80%
  decrease in density of matrices: ~35%
Bacillus subtilis 168 [5]; Bacillus subtilis 168, 90% reduction of biofilm formation
  MBIC: 2.5 to 5 µg/mL
Bacillus subtilis 168 [5]; Bacillus subtilis 168, elasnin 1.25 μg/ml
  biofilms inhibited: at least 80%
E. coli ATCC 25922 [6]
  development of biofilm formation: not influenced
P. aeruginosa PAO1 [7]
  development of biofilm formation: not influenced
S. aureus ATCC 25923 [8]
  MBIC: 1.25 to 2.5 µg/mL
S. aureus B04 [9]
  MBIC: 1.25 to 2.5 µg/mL
Bacillus subtilis 168 [10]
  MBEC: 1.25 to 2.5 µg/mL
E. coli ATCC 25922 [11]
  activity in MBEC assay: No activity
P. aeruginosa PAO1 [12]
  activity in MBEC assay: No activity
S. aureus ATCC 25923 [13]
  MBEC: 0.625 to 1.25 µg/mL
S. aureus B04 [14]
  MBEC: 2.5 to 5 µg/mL
[15]
  inhibition of human granulocyte elastase: inhibits
Pancreatic elastase
  activity against pancreatic elastase: almost no activities
chymotrypsin
  activity against chymotrypsin: almost no activities
trypsin
  activity against trypsin: almost no activities

## CN[C@H](CC(C)C)C(=O)N[C@H]1C(=O)N[C@@H](CC(N)=O)C(=O)N[C@H]2C(=O)N[C@H]3C(=O)N[C@H](C(=O)N[C@H](C(=O)O)c4cc(O)cc(O)c4-c4cc3ccc4O)[C@H](O)c3ccc(c(Cl)c3)Oc3cc2cc(c3O[C@@H]2O[C@H](CO)[C@@H](O)[C@H](O)[C@H]2O[C@H]2C[C@](C)(N)[C@H](O)[C@H](C)O2)Oc2ccc(cc2Cl)[C@H]1O [vancomycin, reference compound]
MRSA ATCC 43300 [16]
  MIC: 0.5 to 2 µg/mL (≈ 0.345 to 1.38 µM)
MRSA ATCC 43300 [1]; Staphylococcus aureus
  MBC: 20 to 50 µg/mL (≈ 13.8 to 34.5 µM)
MRSA ATCC 43300 [3]
  MBEC: More than 10 μg/ml
MRSA ATCC 43300 [4]
  cell density versus concentration (concentration-response curve): sharp decrease in cell density as the concentration increased
